The values that follow come from patent US10752587B2, “Homobispiperidinyl derivatives as liver X receptor beta agonists, compositions and their use” (Merck Sharp & Dohme Corp., priority 2015, dated 2020).

Experiment [1] deals with T1, glutathione-S-transferase (GST) tagged LXRbeta LBD (ligand binding domain) (Homo sapiens, UniProt P55055).
T1 construct: purchased Invitrogen pv4658.pps
T1 sequence (P55055 222-460 limits assumed): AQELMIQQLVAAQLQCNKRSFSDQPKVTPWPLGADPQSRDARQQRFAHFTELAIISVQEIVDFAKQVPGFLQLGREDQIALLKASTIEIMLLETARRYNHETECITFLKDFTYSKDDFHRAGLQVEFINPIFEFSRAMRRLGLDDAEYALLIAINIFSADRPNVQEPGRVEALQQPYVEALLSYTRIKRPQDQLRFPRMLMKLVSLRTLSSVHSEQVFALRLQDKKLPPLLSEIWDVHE
Briefly: LanthaScreen TR-FRET Liver X Receptor Coactivator Assay, co-activator recruitment to LXRbeta LBD. It counts as biochemical. As to conditions: for LXR beta Activity @ max dose (%) / Emax: efficacy at max dose, in relation to reference dual agonist T0901317; for EC50: potency (Inflection Point, IP), co-activator recruitment to LXRbeta LBD, in relation to T0901317, read-out: LXR beta IP; for Emax: read-out: LXR beta Activity @ max dose (%). The method, boiled down:
(§1)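 Readout is time-resolved FRET between a terbium anti-GST antibody bound to the LBD and a fluorescein-tagged coactivator peptide recruited on ligand binding. Plates were incubated at room temperature before reading. Potency (IP) and efficacy (Emax) are referenced to T0901317.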
For orientation: TR-FRET usually uses a lanthanide donor and a delayed reading to cut background.

For experiment [2], the target named is T2, glutathione-S-transferase (GST) tagged LXRalpha LBD (ligand binding domain) (Homo sapiens, UniProt Q13133).
T2 construct: purchased Invitrogen pv4655
T2 sequence (Q13133 209-447 limits assumed): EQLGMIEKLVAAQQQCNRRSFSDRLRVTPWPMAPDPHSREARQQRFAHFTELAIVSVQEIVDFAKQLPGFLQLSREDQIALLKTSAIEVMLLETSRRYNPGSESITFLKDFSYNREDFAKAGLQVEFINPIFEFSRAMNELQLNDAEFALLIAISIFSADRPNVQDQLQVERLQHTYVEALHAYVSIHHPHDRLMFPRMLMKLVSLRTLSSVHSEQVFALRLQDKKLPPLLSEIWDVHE
Briefly: LanthaScreen TR-FRET Liver X Receptor Coactivator Assay, co-activator recruitment to LXRalpha LBD. It counts as biochemical. As to conditions: for LXR alpha Activity @ max dose (%) / Emax: efficacy at max dose, in relation to reference dual agonist T0901317; for EC50 / LXR alpha IP (nM): potency (Inflection Point, IP), co-activator recruitment to LXRalpha LBD, in relation to T0901317; for EC50: read-out: LXR alpha IP; for Emax: read-out: LXR alpha Activity @ max dose (%). The procedure, abridged: as §1

Molecules are shown by their SMILES.

As for `CNC(=O)c1ccc(N2CCC(CC3CCN(C(=O)[C@](O)(c4ccccc4)C(F)(F)F)CC3)CC2)cc1Cl` [Example 7-126, 2-chloro-N-methyl-4-[4-({1-[(2R)-3,3,3-trifluoro-2-hydroxy-2-phenylpropanoyl]piperidin-4-yl}methyl)piperidin-1-yl]benzamide], in experiment [1], the “LXR beta Activity @ max dose (%)” value was 91% and the EC50 came to 19 nM. In addition, in experiment [2], the “LXR alpha Activity @ max dose (%)” value is 46% and the EC50 turned out to be 455 nM.

With `CNC(=O)c1ccc(N2CCC(CC3CCN(C(=O)[C@](O)(c4cccc(OC)c4)C(F)(F)F)CC3)CC2)cc1Cl` [Example 7-127, 2-chloro-N-methyl-4-[4-({1-[(2R)-3,3,3-trifluoro-2-hydroxy-2-(3-methoxyphenyl)propanoyl]piperidin-4-yl}methyl)piperidin-1-yl]benzamide], in experiment [1], the “LXR beta Activity @ max dose (%)” value was found to be 60% and the EC50 turned out to be 19 nM. In experiment [2], the “LXR alpha Activity @ max dose (%)” value was 7% and the “LXR alpha IP (nM)” value is recorded as “NO IP”.

With `CNC(=O)c1ccc(N2CCC(CC3CCN(C(=O)[C@](O)(c4cccc(C(F)(F)F)c4)C(F)(F)F)CC3)CC2)cc1Cl` [Example 7-128, 2-chloro-N-methyl-4-{4-[(1-{(2R)-3,3,3-trifluoro-2-hydroxy-2-[3-(trifluoromethyl)phenyl]propanoyl}piperidin-4-yl)methyl]piperidin-1-yl}benzamide], in experiment [1], the Emax was 78% and the EC50 is 51 nM. Further, in experiment [2], the Emax is 30% and the EC50 turned out to be 1180 nM.

Regarding `CNC(=O)c1ccc(N2CCC(CC3CCN(C(=O)C(O)(c4cccc(Cl)c4)C(F)(F)F)CC3)CC2)cc1Cl` (stereo not drawn) [Example 7-129, 2-chloro-4-[4-({1-[2-(3-chlorophenyl)-3,3,3-trifluoro-2-hydroxypropanoyl]piperidin-4-yl}methyl)piperidin-1-yl]-N-methylbenzamide], in experiment [1], the “LXR beta Activity @ max dose (%)” value was found to be 90% and the EC50 was 16 nM. In addition, in experiment [2], the “LXR alpha IP (nM)” value was “NO IP”.

With `O=C(NCCn1cncn1)c1ccc(N2CCC(CC3CCN(C(=O)[C@](O)(c4cc(Cl)cc(Cl)c4)C(F)(F)F)CC3)CC2)cc1Cl` [Example 7-130, 2-chloro-4-[4-({1-[(2R)-2-(3,5-dichlorophenyl)-3,3,3-trifluoro-2-hydroxypropanoyl]piperidin-4-yl}methyl)piperidin-1-yl]-N-[2-(1H-1,2,4-triazol-1-yl)ethyl]benzamide], in experiment [1], the Emax stood at 54% and the EC50 is 73 nM. For the same compound, in experiment [2], the Emax was 7% and the “LXR alpha IP (nM)” value is given as “NO IP”.

For the compound `CNC(=O)c1ccc(N2CCC(CC3CCN(C(=O)[C@](O)(c4ccccc4)C(F)(F)C(F)(F)F)CC3)CC2)nc1Cl` [Example 7-131, 2-chloro-N-methyl-6-[4-({1-[(2R)-3,3,4,4,4-pentafluoro-2-hydroxy-2-phenylbutanoyl]piperidin-4-yl}methyl)piperidin-1-yl]pyridine-3-carboxamide], in experiment [1], the Emax was found to be 145% and the EC50 is 27 nM. Moreover, in experiment [2], the Emax worked out at 74% and the EC50 stood at 373 nM.

`CNC(=O)c1ccc(N2CCC(CC3CCN(C(=O)[C@](O)(c4cc(F)cc(OC)c4)C(F)(F)F)CC3)CC2)nc1Cl` [Example 7-132, 2-chloro-N-methyl-6-[4-({1-[(2R)-3,3,3-trifluoro-2-(3-fluoro-5-methoxyphenyl)-2-hydroxypropanoyl]piperidin-4-yl}methyl)piperidin-1-yl] pyridine-3-carboxamide]: in experiment [1], the Emax was found to be 124% and the EC50 was 5 nM. Also, in experiment [2], the Emax came out at 22% and the EC50 stood at 75 nM.

As for `CNC(=O)c1ccc(N2CCC(CC3CCN(C(=O)C(O)(c4cc(F)cc(F)c4)C(F)(F)F)CC3)CC2)nc1Cl` (stereo not drawn) [Example 7-133, 2-chloro-6-[4-({1-[2-(3,5-difluorophenyl)-3,3,3-trifluoro-2-hydroxypropanoyl]piperidin-4-yl}methyl)piperidin-1-yl]-N-methylpyridine-3-carboxamide], in experiment [1], the Emax was 123% and the EC50 is 6 nM. In experiment [2], the Emax was 66% and the EC50 was 83 nM.

As to `CNC(=O)c1ccc(N2CCC(CC3CCN(C(=O)[C@](O)(c4cc(Cl)cc(Cl)c4)C(F)(F)F)CC3)CC2)nc1Cl` [Example 7-134, 2-chloro-6-[4-({1-[(2R)-2-(3,5-dichlorophenyl)-3,3,3-trifluoro-2-hydroxypropanoyl]piperidin-4-yl}methyl)piperidin-1-yl]-N-methylpyridine-3-carboxamide], in experiment [1], the Emax was found to be 78% and the EC50 was 9 nM. In addition, in experiment [2], the Emax turned out to be 14% and the “LXR alpha IP (nM)” value is reported as “NO IP”.

With `CNC(=O)c1ccc(N2CCC(CC3CCN(C(=O)[C@](O)(c4cccc(OC)c4)C(F)(F)F)CC3)CC2)nc1Cl` [Example 7-135, 2-chloro-N-methyl-6-[4-({1-[(2R)-3,3,3-trifluoro-2-hydroxy-2-(3-methoxyphenyl)propanoyl]piperidin-4-yl}methyl)piperidin-1-yl]pyridine-3-carboxamide], in experiment [1], the Emax amounted to 81% and the EC50 came out at 13 nM. Besides, in experiment [2], the Emax is 14% and the “LXR alpha IP (nM)” value was “NO IP”.

As for `CNC(=O)c1ccc(N2CCC(CC3CCN(C(=O)[C@](O)(c4cccc(OC(C)C)c4)C(F)(F)F)CC3)CC2)nc1Cl` [Example 7-136, 2-chloro-N-methyl-6-{4-[(1-{(2R)-3,3,3-trifluoro-2-hydroxy-2-[3-(1-methylethoxy)phenyl]propanoyl}piperidin-4-yl)methyl]piperidin-1-yl}pyridine-3-carboxamide], in experiment [1], the Emax is 86% and the EC50 stood at 14 nM. Also, in experiment [2], the Emax was found to be 6% and the “LXR alpha IP (nM)” value is given as “NO IP”.

In the case of `CCOc1cccc([C@@](O)(C(=O)N2CCC(CC3CCN(c4ccc(C(=O)NC)c(Cl)n4)CC3)CC2)C(F)(F)F)c1` [Example 7-137, 2-chloro-6-[4-({1-[(2R)-2-(3-ethoxyphenyl)-3,3,3-trifluoro-2-hydroxypropanoyl]piperidin-4-yl}methyl)piperidin-1-yl]-N-methylpyridine-3-carboxamide], in experiment [1], the Emax is 82% and the EC50 came out at 23 nM. Further, in experiment [2], the Emax came out at 9% and the “LXR alpha IP (nM)” value is “NO IP”.

In the case of `CNC(=O)c1ccc(N2CCC(CC3CCN(C(=O)[C@](O)(c4cccc(OC)c4)C(F)(F)C(F)(F)F)CC3)CC2)nc1Cl` [Example 7-138, 2-chloro-N-methyl-6-[4-({1-[(2R)-3,3,4,4,4-pentafluoro-2-hydroxy-2-(3-methoxyphenyl)butanoyl]piperidin-4-yl}methyl)piperidin-1-yl]pyridine-3-carboxamide], in experiment [1], the Emax was determined as 102% and the EC50 is 30 nM. In experiment [2], the Emax turned out to be 39% and the EC50 stood at 424 nM.

Regarding `CNC(=O)c1ccc(N2CCC(CC3CCN(C(=O)[C@](O)(c4cccc(OC(F)(F)F)c4)C(F)(F)F)CC3)CC2)nc1Cl` [Example 7-139, 2-chloro-N-methyl-6-{4-[(1-{(2R)-3,3,3-trifluoro-2-hydroxy-2-[3-(trifluoromethoxy)phenyl]propanoyl}piperidin-4-yl)methyl]piperidin-1-yl}pyridine-3-carboxamide], in experiment [1], the Emax is 91% and the EC50 came to 26 nM. In experiment [2], the Emax worked out at 26% and the EC50 was 223 nM.

Turning to `CNC(=O)c1ccc(N2CCC(CC3CCN(C(=O)[C@@](O)(c4ccccc4)C(F)(F)F)CC3)CC2)nc1Cl` [Example 7-140, 2-chloro-N-methyl-6-[4-({1-[(2S)-3,3,3-trifluoro-2-hydroxy-2-phenylpropanoyl]piperidin-4-yl}methyl)piperidin-1-yl]pyridine-3-carboxamide], in experiment [1], the Emax worked out at 122% and the EC50 was determined as 158 nM. Also, in experiment [2], the Emax worked out at 44% and the EC50 amounted to 1130 nM.

On to `CNC(=O)c1ccc(N2CCC(CC3CCN(C(=O)[C@](O)(c4ccccc4)C(F)(F)F)CC3)CC2)nc1Cl` [Example 7-141, 2-chloro-N-methyl-6-[4-({1-[(2R)-3,3,3-trifluoro-2-hydroxy-2-phenylpropanoyl]piperidin-4-yl}methyl)piperidin-1-yl]pyridine-3-carboxamide], for which, in experiment [1], the Emax stood at 102% and the EC50 came out at 13 nM. In experiment [2], the Emax was found to be 47% and the EC50 amounted to 173 nM.
